Results reported in the supplement of paper PMC10307832.

Tests used:
Experiment in all cases: relative viability (nuclei count vs DMSO), 5 days (fraction); higher = more cells survive
[1] = compound: O=C(CCCCCCNC(=O)c1cnc(N(c2ccccc2)c2ccccc2)nc1)NO [Ricolinostat] + N=C(N)NC(=N)NCCc1ccccc1 [Phenformin] (partner 250 µM)
Summary of the method: (§1)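 One day after seeding in 1536-well plates, lung cancer cell lines were dosed by pin tool. Dosing was either single-drug or a fixed anchor-drug dose plus five library-drug doses (not always all listed) in √10 steps. After 5 days, nuclei were stained in one fix-and-stain step and counted on 4× images, and relative viability is the nuclei count of treated wells over that of vehicle wells, given as the median of duplicate plates.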

[2] = compound: C1=CC=C(C(=C1)C2=CC=C(C=C2)C3=CSC4=C3C(=C(C(=O)N4)C#N)O)O + COc1cccc2cc(-c3nc([C@H]4CC[C@H](C(=O)O)CC4)n4ncnc(N)c34)[nH]c12 [OSI-027] (partner 0.5 µM)
Summary of the method: as §1

TGX 221 + AZD7762 = compound: CC1=CN2C(=O)C=C(N=C2C(=C1)C(C)NC3=CC=CC=C3)N4CCOCC4 [TGX 221] + NC(=O)Nc1cc(-c2cccc(F)c2)sc1C(=O)N[C@H]1CCCNC1 [AZD7762] (partner 0.2 µM)
Summary of the method: as §1

Ricolinostat + OSI-027 = compound: O=C(CCCCCCNC(=O)c1cnc(N(c2ccccc2)c2ccccc2)nc1)NO [Ricolinostat] + COc1cccc2cc(-c3nc([C@H]4CC[C@H](C(=O)O)CC4)n4ncnc(N)c34)[nH]c12 [OSI-027] (partner 0.5 µM)
Summary of the method: as §1

| Cell Line | relative viability ([1]; first compound 0.08 µM) | relative viability ([1]; first compound 0.253 µM) | relative viability ([1]; first compound 0.8 µM) | relative viability ([1]; first compound 2.53 µM) | relative viability ([2]; first compound 0.08 µM) | relative viability ([2]; first compound 0.253 µM) | relative viability ([2]; first compound 0.8 µM) | relative viability ([2]; first compound 2.53 µM) | relative viability ([2]; first compound 8 µM) | relative viability (TGX 221 + AZD7762; first compound 0.08 µM) | relative viability (TGX 221 + AZD7762; first compound 0.253 µM) | relative viability (TGX 221 + AZD7762; first compound 0.8 µM) | relative viability (TGX 221 + AZD7762; first compound 2.53 µM) | relative viability (TGX 221 + AZD7762; first compound 8 µM) | relative viability (Ricolinostat + OSI-027; first compound 0.08 µM) | relative viability (Ricolinostat + OSI-027; first compound 0.253 µM) | relative viability (Ricolinostat + OSI-027; first compound 0.8 µM) | relative viability (Ricolinostat + OSI-027; first compound 2.53 µM) |
| --- | --- | --- | --- | --- | --- | --- | --- | --- | --- | --- | --- | --- | --- | --- | --- | --- | --- | --- |
| LC-2-ad | 0.47 | 0.621 | 0.5 | 0.44 | 0.778 | 0.951 | 0.822 | 0.743 | 0.759 | 0.832 | 0.823 | 0.832 | 0.777 | 0.736 | 0.723 | 0.711 | 0.635 | 0.517 |
| LCLC-97TM1 | 0.314 | 0.417 | 0.45 | 0.204 | 0.406 | 1.02 | 0.72 | 0.707 | 0.425 | 0.139 | 0.273 | 0.247 | 0.128 | 0.277 | 0.271 | 0.524 | 0.541 | 0.27 |
| LCLC-103H | 0.252 | 0.323 | 0.371 | 0.325 | 0.372 | 0.39 | 0.519 | 0.469 | 0.434 | 0.789 | 0.762 | 0.771 | 0.707 | 0.731 | 0.363 | 0.447 | 0.48 | 0.444 |
| LK-2 | 0.415 | 0.547 | 0.499 | 0.449 | – | 0.161 | 0.178 | 0.218 | 0.203 | 0.377 | 0.434 | 0.436 | 0.395 | 0.521 | 0.202 | 0.234 | 0.212 | 0.208 |
| LOU-NH91 | 0.516 | 0.726 | 0.713 | 0.744 | 0.765 | 0.721 | 0.71 | 0.727 | 0.69 | 0.73 | 0.758 | 0.746 | 0.789 | 0.714 | 0.511 | 0.713 | 0.672 | 0.647 |
| LU99A | 0.738 | 0.705 | 0.716 | 0.597 | 0.3 | 0.263 | 0.27 | 0.345 | 0.301 | 0.263 | 0.387 | 0.391 | 0.402 | 0.305 | 0.243 | 0.296 | 0.305 | 0.249 |
| LXF-289 | 0.495 | 0.463 | 0.538 | 0.529 | 0.666 | 0.801 | 0.778 | 0.865 | 0.732 | 1.12 | 1.12 | 1.06 | 1.03 | 1.08 | 0.668 | 0.906 | 0.782 | 0.749 |
| NCI-H23 | 0.72 | 0.749 | 0.8 | 0.706 | 0.69 | 0.523 | 0.596 | 0.575 | 0.537 | 0.277 | 0.213 | 0.269 | 0.217 | 0.201 | 0.496 | 0.571 | 0.578 | 0.465 |
| NCI-H520 | – | 0.732 | 0.578 | 0.498 | 0.174 | 0.192 | 0.237 | 0.304 | 0.233 | – | – | – | – | – | – | 0.259 | 0.231 | 0.228 |
| NCI-H661 | 0.27 | 0.285 | 0.262 | 0.302 | 0.648 | 0.739 | 0.524 | 0.649 | 0.664 | – | – | – | – | – | 0.501 | 0.669 | 0.712 | 0.652 |
| NCI-H1563 | 0.596 | 0.647 | 0.685 | 0.671 | 0.672 | 0.746 | 0.7 | 0.774 | 0.745 | – | – | – | – | – | 0.759 | 0.731 | 0.774 | 0.62 |
| NCI-H1623 | 0.559 | 0.582 | 0.557 | 0.556 | 0.469 | 0.453 | 0.382 | 0.427 | 0.419 | – | – | – | – | – | 0.389 | 0.428 | 0.414 | 0.312 |
| NCI-H1648 | – | – | – | – | 0.312 | – | 0.224 | 0.27 | 0.311 | – | 0.784 | 0.793 | 0.628 | 0.672 | 0.28 | 0.281 | 0.249 | 0.259 |
| NCI-H1650 | 0.338 | 0.408 | 0.445 | 0.218 | 0.477 | 0.784 | 0.738 | 0.508 | 0.43 | – | – | – | – | – | 0.471 | 0.586 | 0.459 | 0.361 |
| NCI-H1703 | – | – | – | – | – | – | – | – | – | 0.129 | 0.12 | 0.12 | 0.116 | 0.146 | – | – | – | – |
| NCI-H2009 | 0.455 | 0.46 | 0.446 | 0.43 | 0.624 | 0.63 | 0.555 | 0.612 | 0.509 | – | – | – | – | – | 0.447 | 0.565 | 0.553 | 0.567 |
| NCI-H2023 | – | 0.403 | 0.382 | 0.344 | 0.32 | 0.441 | 0.404 | 0.382 | 0.317 | – | – | – | – | – | – | 0.446 | 0.343 | 0.377 |
| NCI-H2228 | 0.255 | 0.341 | 0.355 | 0.342 | 0.6 | 0.785 | 0.576 | 0.491 | 0.372 | – | – | – | – | – | 0.593 | 0.496 | 0.616 | 0.286 |
| SK-LU-1 | 0.449 | 0.666 | 0.565 | 0.395 | 0.342 | 0.369 | 0.276 | 0.397 | 0.3 | – | – | – | – | – | 0.321 | 0.431 | 0.353 | 0.269 |
| SK-MES-1 | 0.597 | 0.599 | 0.678 | 0.672 | 0.711 | 0.666 | 0.562 | 0.67 | 0.419 | – | – | – | – | – | 0.407 | 0.561 | 0.534 | 0.558 |
| SW 1573 | 0.316 | 0.393 | 0.474 | 0.551 | 0.618 | 0.821 | 0.657 | 0.54 | 0.391 | – | – | – | – | – | 0.588 | 0.612 | 0.647 | 0.501 |
| UMC-11 | 0.273 | 0.344 | 0.271 | 0.194 | 0.429 | 0.641 | 0.503 | 0.446 | 0.437 | – | – | – | – | – | 0.406 | 0.517 | 0.487 | 0.235 |
